Assay results as given in patent US20200129582A1, “NOVEL PEPTIDES AND PEPTIDOMIMETICS” (UNIVERSITY OF AUCKLAND, priority 2016, published 2020).
Like-named read-outs stand apart in the source and are kept apart here.

How the values were obtained:
[1] = target: T1, Connexin43 plaques in ARPE-19 cells (Homo sapiens, UniProt P17302); test: Immunocytochemistry and quantification of Cx43 plaques; format: cell-based; conditions: for total Connexin43 expression reduced by, relative to the control: 500 μM; for Connexin43 labelling per cell compared to untreated control (in words): 2- or 6-hour treatment, Peptide5 50-500 μM, LaCl3 and CBX 500 μM; for distribution of Connexin43 plaques: Peptide5 500 μM, FIG. 1A
T1 construct: a cell line with high endogenous expression of connexin43; endogenous in cells; host or cells: ARPE-19
Procedure: (§1) ARPE-19 cells were grown until confluent in 8-well glass chamber-slides (BD Falcon). Confluent monolayers of ARPE-19 cells were incubated at a final concentration of 50 to 500 μM Peptide5, 500 μM LaCl3 and 500 μM CBX in culture medium for 2 or 6 hours. Cells were fixed in 4% PFA (ProSciTech) at pH 7.4 for 10 min at room temperature, permeabilized with 0.05% Triton-X100 in PBS, and incubated in 10% normal goat serum to block non-specific labelling. Cells were rinsed three times with PBS containing 0.1 mM CaCl2 between each fixation, permeabilization, and blocking steps. Connexin43 polyclonal rabbit antibody (C6219, Sigma, 1:2000) was applied overnight, followed by a goat anti-rabbit Alexa Fluor® 568 secondary antibody (Invitrogen, 1:200) for 45 minutes. Nuclei were counterstained with DAPI (Invitrogen) at 10,000-fold dilution for 5 mins, and mounted with Citifluor™ mounting medium. Images were visualised and captured using an oil immersion lens (60× magnification, 1.35 numerical aperture) on an Olympus FV1000 upright confocal laser scanning microscope and Olympus FV10-ASW 4.0 software. The Transfluor feature in MetaXpress® Image acquisition and analysis software (Version 5.3.0.1, Molecular Devices) was used to quantify the total area of Connexin43 plaques per image.
as §1

[2] = target: T2, coupled gap junction channels in hCMVEC cells (Homo sapiens, UniProt P17302); format: cell-based
T2 construct: A confluent monolayer of hCMVECs was pre-incubated in Peptide5; endogenous in cells; host or cells: hCMVEC
Procedure: (§2) The hCMVEC cells were plated in 1 μg/cm^2 collagen I (Gibco) 12-well plate at a density of 0.4×10^6 cells per well, and cultured overnight. A confluent monolayer of hCMVECs was pre-incubated in Peptide5 (5-100 μM) dissolved in culture medium for 2 hours or 24 hours. CBX at a concentration of 100 μM was used as a positive control. Cells were washed three times with phosphate buffered saline (PBS) without Ca^2+ or Mg^2+. The cells were then incubated in 0.05% Lucifer Yellow (LY) (Sigma), a fluorescent dye that is transferred through coupled gap junction channels (el-Fouly et al., 1987, Experimental cell research 168:422-430), +/−Peptide5 dissolved in PBS, and scrape-wounded with a size 10 carbon steel surgical blade (Swann-Morton, England). Following 5-minute incubation at 37° C. in 95% O2 and 5% CO2 without light, the 0.05% LY solution was removed. Cells were rinsed four times with PBS with Ca^2+ or Mg^2+, and then fixed in 4% paraformaldehyde (PFA) in PBS at pH 7.4 for 10 minutes at room temperature. Cells were then washed 3 times in PBS to remove PFA before fluorescent imaging. Fluorescent images were visualised using a Nikon TE2000E inverted fluorescent microscope (10× magnification, 0.3 numerical aperture), and captured using a Digital Sight CCD camera and Eclipse Net software (Nikon). Three images within each well from three independent experiments were taken for analysis and the total number of cells showing dye uptake from those that had been loaded were counted manually by masked observers.
as §2, with “1987),” for “1987, Experimental cell research 168:422-430),”

T2 sequence (P17302 2-382 limits assumed): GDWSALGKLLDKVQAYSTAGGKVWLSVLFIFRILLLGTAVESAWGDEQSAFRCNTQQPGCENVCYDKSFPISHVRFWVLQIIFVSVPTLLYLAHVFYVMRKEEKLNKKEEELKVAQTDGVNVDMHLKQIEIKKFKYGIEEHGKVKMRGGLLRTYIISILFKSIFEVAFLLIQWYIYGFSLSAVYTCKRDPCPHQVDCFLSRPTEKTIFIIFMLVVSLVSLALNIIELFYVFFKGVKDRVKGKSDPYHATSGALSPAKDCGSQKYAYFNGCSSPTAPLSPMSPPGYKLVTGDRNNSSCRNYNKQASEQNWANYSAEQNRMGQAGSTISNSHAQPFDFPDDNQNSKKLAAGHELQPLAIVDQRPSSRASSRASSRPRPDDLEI
T1 sequence (P17302 2-382 limits assumed): as above

Row | Molecule | total Connexin43 expression reduced by, relative to the control ([1]; 2-hour exposure) [%] | total Connexin43 expression reduced by, relative to the control ([1]; after 6 hours) [%] | Connexin43 labelling per cell compared to untreated control (in words) [1] | LY positive cells compared to the control ([2]; hCMVEC, 100 μM, 2-hour exposure, FIG. 2A) [%] | LY dye transfer, % of the untreated control ([2]; hCMVEC, 100 μM, 2-hour exposure, FIG. 5, untreated control 100±4.5%) [%] | LY dye transfer compared to native Peptide5 (in words) ([2]; hCMVEC, 100 μM, FIG. 2) | LY dye transfer compared to untreated control (in words) ([2]; hCMVEC, 100 μM, FIG. 2) | distribution of Connexin43 plaques ([1]; 2-hour exposure) | distribution of Connexin43 plaques ([1]; 6-hour exposure) | LY dye transfer compared to untreated control (in words) [2] | LY dye transfer, % of the untreated control [2] [%] | LY positive cells compared to the control [2] [%]
1 | CC1(C)[C@@H](OC(=O)CCC(=O)O)CC[C@]2(C)[C@H]3C(=O)C=C4[C@@H]5C[C@@](C)(C(=O)O)CC[C@]5(C)CC[C@@]4(C)[C@]3(C)CC[C@@H]12 [CBX, Carbenoxolone] | 30.0±8.2 | 53.4±8.1 | significant reduction | 16.3±1.1 | 15.3±1.8 | significantly more than the native Peptide5 | significantly reduced | – | – | – | – | –
2 | VDCFLSRPTEKT [Peptide5] | – | – | no significant difference | – | – | – | – | patterns of cytoplasmic streaming | fragmented | significantly attenuated LY dye transfer | 79.4±3.9 | 56.2±2.6
